The results in this text go back to patent publication US20100204277A1, “Compositions and Methods for Controlling Infestation” (HATCHTECH PTY LTD., priority 2007, published 2010).

In experiment [1] the test system is Lice (L) / Plutella (P) eggs. It counts as in vivo. Conditions: Lice/Plutella: P. As for the experimental part:
Log LD50 is obtained from the observed percentage ovicidal activity by conversion using a modified logit transformation. The observed percentage ovicidal activity values were transformed using the equation:
The additional 5% was used to allow a number to be calculated when 0% and 100% activity was observed. The BA is a crude correction to the log of the concentration at which the compounds were tested. Correlation between BA values and LD50 allows the calculation of Log LD50. […] A number of metal chelating agents with potential for inhibiting the remodelling events associated with thin membrane egg hatching in lice were analysed by comparing their percentage ovicidal activity in lice at different concentrations, their logit calculated pLD50, Pref pLD50, Activity class, clogP and molar refractivity were determined.

The subject of another experiment is H. contortus eggs. In words: Haemonchus contortus egg hatch. It counts as in vivo. The protocol:
In an attempt to improve control of H. contortus the effects of the compound 5,5′-dimethyl-2,2′-dipyridyl was examined on H. contortus eggs. Eggs were recovered from the faeces of infected sheep using a standard sucrose floatation method. The eggs were corrected to a density of approximately 2,500 eggs per mL and were then exposed to varying concentrations of compound and incubated for 48 hours at 25° C. The eggs were then examined to determine the ovicidal efficacy of the compound in comparison to untreated control and a solvent only control.
In addition, the ovicidal efficacy of the compound 2-acetyl-1-tetralone was examined against H. contortus (FIG. 10). The same protocol was used as described for 5,5′-dimethyl-2,2′-dipyridyl.

Experiment [2] concerns Helicoverpa armigera eggs. Nature of the experiment: Helicoverpa egg hatch. Conditions: for ovicidal efficacy against H. armigera eggs (FIG. 6): 1% diethoxyglycol in water; for % Inhibition of egg hatch relative to control: Example 16, exposed 2-10 seconds, day 6 post laying.
Procedure: A range of concentrations were made up in water and the eggs placed in the solutions for approximately 2-10 seconds. The eggs which had been laid on cloth were then blotted dry and placed in an incubator at 26° C. for 3-4 days until hatch. Hatch rates were then assessed compared to a water only treated control (FIG. 5).
The compound was dissolved in 100% diethoxyglycol and diluted to a final concentration of 1% in water.
Several hundred Helicoverpa armigera eggs (Tatura×Toowoomba strains) were collected, that had been laid on fine mesh cloth over a 24 hour period.
Batches of Helicoverpa eggs were exposed to a specific inhibitor solution for between 2-10 seconds the excess solution drained by blotting with dry tissue paper. The egg masses were then placed in a humid box at 25 degrees until egg hatch. Control eggs were exposed to absolute methanol as described above. At day 6 post laying the eggs were assessed from the different treatments and the percentage of egg hatch determined relative to the control as shown in Table 12.
Batches of Helicoverpa eggs were then exposed to a specific inhibitor solution for between 2-10 seconds the excess solution drained by blotting with dry tissue paper. The egg masses were then placed in a humid box at 25° C. until egg hatch. Control eggs were exposed to absolute methanol as described above. At day 6 post laying the eggs were assessed from the different treatments and the percentage of egg hatch determined relative to the control as shown in Table 13.
The test system of experiment [3] is Plutella xylostella eggs (Waite strain). Nature of the experiment: Plutella xylostella egg hatch (egg dip). Conditions: for ovicidal efficacy against Plutella eggs (FIG. 7): 1% diethoxyglycol; for egg hatching of Plutella eggs (Tables 10 and 11): cloth or parafilm; for % Inhibition of egg hatch relative to control: Example 12, dip 2-10 seconds, day 6 post laying.
Procedure: Several hundred Plutella xylostella eggs (Waite strain) were collected, that had been laid over a 24 hour period.
The egg masses were then placed in a humid box at 25° C. until egg hatch. Control eggs were exposed to absolute methanol as described above. At day 6 post laying the eggs were assessed from the different treatments and the percentage of egg hatch determined relative to the control as shown in Table 9.
Batches of Plutella eggs that were laid on either fine cloth or parafilm were dipped in a specific inhibitor solution for between 2-10 seconds, the excess solution was drained by blotting with dry tissue paper. The egg masses were then placed in a humid box at 25 degrees until egg hatch. Control eggs were exposed to absolute methanol as described above or not treated. At day 6 post laying the eggs were assessed from the different treatments and the percentage of egg hatch determined relative to the controls as shown in Tables 10 and 11.
The egg masses were then placed in a humid box at 25 degrees until egg hatch. Control eggs were exposed to absolute ethanol as described above. On day 6 post laying the eggs were assessed from the different treatments and the percentage of egg hatch determined relative to the control.

Experiment [4] shares this test system. Nature of the experiment: Reversal of ovicidal effect by added metal ions (FeSO4), Plutella eggs. It counts as in vivo. As for the experimental part: (§1) Within 24 hours of collection the following experimental design was chosen. Batches of eggs were exposed to 10 mM 6,6′-dimethyl-2,2′-dipyridyl for 2 seconds while additional batches of eggs were exposed to the solvent only (Methanol) for 2 seconds. All batches of eggs were allowed to air dry for 20 minutes at room temperature. The eggs were then given a 2 second exposure to FeSO4 at either 10, 5 or 1 mM, air dried and put in the incubator at 24° C. and allowed to hatch over the next 6 days. In addition, a positive control of 10 mM 6,6′-dimethyl-2,2′-dipyridyl was set up in which eggs were exposed to this compound for 2 seconds, air dried and placed in the incubator.
as §1, with “10 mM 5,5′-dimethyl-2,2′-dipyridyl for 2” for “10 mM 6,6′-dimethyl-2,2′-dipyridyl for 2”, “FeSO4 at 10, 5” for “FeSO4 at either 10, 5”, “put in an incubator at” for “put in the incubator at”, “of 10 mM, 5,5′-dimethyl-2,2′-dipyridyl was set” for “of 10 mM 6,6′-dimethyl-2,2′-dipyridyl was set”

For another experiment, the system named is house dust mite. In words: House dust mite counts on treated filter paper. It counts as in vivo, Dermatophagoides spp. Conditions: per replicate; for 2 week count (mite count): 2 weeks at 25° C. and 75% RH. The protocol:
A filter paper (90 mm diameter) was taken and placed in a Petri dish of the same dimensions. The filter paper was then wetted throughout with the test compound, using a small air pump sprayer. The wetted filter paper was then allowed to dry in free flowing air. 200 mg dust mite medium, containing roughly 500 mites/g, was placed on the filter paper and the number of mites counted under a microscope. The arena was then left for 2 weeks on an incubator at 25° C. and 75% RH. After 2 weeks the number of mites in the arena was counted for a second time. This experiment was repeated 3 times with the test compound and a further 3 times using water as a control.

Experiment [5] concerns Third stage H. contortus larvae. Nature of the experiment: Survival of third stage H. contortus larvae (L3 to L4). It counts as in vivo, Haemonchus contortus. The protocol:
Third stage H. contortus larvae were exposed to varying concentrations of 5,5′-dimethyl-2,2′-dipyridyl and the effects on moulting from L3 to L4 examined. The larvae were either exsheathed (their L2 sheath was removed chemically) or unexsheathed (their L2 sheaths were intact). The larvae were exposed to varying concentrations of 5,5′-dimethyl-2,2′-dipyridyl added to their culture media of DMEM and the effects on larval survival monitored over time. Following a 30 minute incubation at 37° C., greater than 90% of the exsheathed larvae exposed to 1 and 0.5 mM of the compound appeared dead. […] By day six post exposure greater than 90% of the larvae appeared to have died in the treatment groups while the control larvae appeared healthy.

Another experiment relates to head lice eggs. In words: Formulated compound on egg hatching in head lice. It counts as in vivo. Conditions: 20 mM formulation. As for the experimental part:
Gravid female lice were permitted to lay eggs. The eggs were counted, inspected under a light microscope and all eggs that appeared undamaged were allocated to one of two treatment groups. One group was exposed to 5′-dimethyl-2,2′-dipyridyl in a formulation, while the second group was exposed to the formulation only. The protocol was as follows:
Treatments: 5′-dimethyl-2,2′-dipyridyl (20 mM) n=10 • Vehicle control only n=10
Exposure time: 10 minutes
Wash time: 1 minute @˜37° C.
Incubation: All eggs were placed at 31° C. in a humid incubator and monitored for signs of development specifically of the eyes and subsequent hatching, see Table 21.

[6] abbreviates: 10 mM compound followed by 2 second exposure to 1 mM FeSO4.
Where [7] appears, read: 10 mM compound followed by 2 second exposure to 5 mM FeSO4.
[8] abbreviates: 10 mM compound followed by 2 second exposure to 10 mM FeSO4.

“And” between values parts separate entries of the source, which are not always exact repeats. Equal entries are not always repeated. Where two headings read alike, the source gives them in different places.

Turning to `CC(=O)C1CCc2ccccc2C1=O` (stereo not drawn) [2-acetyl-1-tetralone], the “Activity class 0 = inactive 1 = low 2 = med 3 = high” value in experiment [1] (1 mM) is 3 (a pLD50 greater than 4 is considered strongly active (Class 3)); in experiment [1] (10 mM) it was 1 (a pLD50 value between 2 and 3 is considered weakly active (Class 1)). The “inhibition of H. contortus egg hatch (FIG. 10)” value in the experiment with H. contortus eggs (22 ug/mL (0.1 mM)) is reported as “Partial inhibition”; with H. contortus eggs (220 ug/mL (1 mM) and 110 ug/mL (0.5 mM)) it was “highly effective”. The “ovicidal efficacy against H. armigera eggs (FIG. 6)” value in experiment [2] (1 mM) was “efficacy declining”; in experiment [2] (2 mM), “strong ovicidal efficacy”. For the same compound, the “ovicidal efficacy against Plutella eggs (FIG. 7)” value is given as “no inhibition” in experiment [3] (0.5 mM); “strong ovicidal efficacy” in experiment [3] (2 and 1 mM).
In the case of `Cc1ccc(-c2ccc(C)cn2)nc1` [5,5′-dimethyl-2,2′-dipyridyl], the “% Inhibition relative to the FeSO4 controls” value in experiment [4] (setting [6]) was found to be 0%; in experiment [4] (setting [7]) it was 0%; in experiment [4] (setting [8]) it was 8%. In the experiment with H. contortus eggs (180 and 18 ug/mL (equivalent to 1 and 0.1 mM), 48 hours at 25° C.), the “ovicidal efficacy on H. contortus eggs (FIG. 8)” value is reported as “potently ovicidal”. Besides, the “2 week count (mite count)” value was 50 and 90 with house dust mite (listed as Test Compound); 74 in the experiment with house dust mite (listed as Test compound). Also, the “1 hour count (mite count)” value was 61 and 104 in the experiment with house dust mite (listed as Test Compound); 76 with house dust mite (listed as Test compound). In experiment [5] (10 μM, up to 6 days post exposure), the “appearance of unexsheathed larvae” value is on record as “appeared normal”. In experiment [5] (up to 3 days post exposure), the “effects on unexsheathed larvae compared to control larvae” value was “no adverse effects”. For the same compound, the “egg hatching in head lice” value in the experiment with head lice eggs (10 minutes exposure) was “significantly suppress”. Also, the “eggs that failed to hatch” value with head lice eggs (the eggs other than the two that developed) came out at 80%. The “egg hatching of Plutella eggs (Tables 10 and 11)” value in experiment [3] (10 and 1 mM) is reported as “significantly inhibit”.
For `Cc1cccc(-c2cccc(C)n2)n1` [6,6′-dimethyl-2,2′-dipyridyl], the “% Inhibition relative to the FeSO4 controls” value is given as 3% in experiment [4] (setting [6]), 0% in experiment [4] (setting [7]) and 38% in experiment [4] (setting [8]). In addition, the “% Inhibition of egg hatch relative to control” value was “No inhibition” in experiment [2] (0.001 mM); “No inhibition” in experiment [2] (0.01 mM); “No inhibition” in experiment [2] (0.1 mM); “significantly inhibit” in experiment [2] (1 mM); “significantly inhibit” in experiment [2] (10 mM); “strong ovicidal effects” in experiment [3] (1 mM). The “% Inhibition of egg hatch relative to control” value in experiment [3] (10 mM) is reported as “strong ovicidal effects”. The “egg hatching of Plutella eggs (Tables 10 and 11)” value in experiment [3] (0.1 and 0.01 mM) is reported as “no observable effects”; in experiment [3] (10 and 1 mM) it was “effective at inhibiting egg hatching”.
